# What was measured:
# [1] = background, cited from earlier work
# [2] = for % O2 Removed, 1 Minute: hydroquinone: pH 8.6, 22.5 °C, 0.94 mol/mol O2, initial O2 7.7 ppm
# Text: The test apparatus basically consisted of a 1 liter three-necked flask fitted with a dissolved oxygen probe and a pH electrode. The intent of this apparatus was to show reaction kinetics differences rather than precise measurements (within seconds) of reaction times.
# The flask was filled with deionized water which had been stripped of some dissolved oxygen by bubbling nitrogen through a diffuser stone. The pH was adjusted to the desired level with sodium hydroxide. The flask was sealed with a rubber septum, the dissolved oxygen probe and an inlet stopper. A magnetic stirrer bar was left in the flask for mixing. The mixer was turned on, and dissolved oxygen and temperature readings were recorded until the dissolved oxygen reached a constant value. Next, the appropriate quantity of additive was injected through the septum using a hypodermic syringe. The initial mole ratio of treatment to dissolved oxygen was determined by weighing feed chemical and measuring the oxygen concentration. […] Dissolved oxygen and temperature readings were then taken at appropriate time intervals.
# [3] = Cohn and Powell, J. Amer. Chem. Soc., 76, 2568 (1954); cited from earlier work
# [4] = low temperatures such as room temperature; background; cited from earlier work
# [5] = background; cited from earlier work
# [6] = oxygen scavenging in feedwater of a working boiler (Example 2)
# Procedure: In order to compare the performance of hydroquinone with that of hydrazine under field-type conditions, a series of experiments were conducted on the feedwater of a working boiler. The test materials were fed to the deaerator storage tank, and the resultant change, if any, in dissolved oxygen level was measured on a sample flowing from the feedwater line through a membrane-type dissolved oxygen probe.
# During the tests, a relatively wide range of experimental conditions was encountered among the test parameters, reflecting the difficulty of attempting to obtain precise data during experiments performed on a working boiler.
# In order to provide some point of reference for judging oxygen scavenging efficacies while taking into account the diverse conditions experienced on a daily basis, hydrazine control runs were performed, whenever possible, under feedwater and boiler conditions similar to those encountered during testing of other test materials. The hydrazine control runs are reported below in TABLE 3 also in terms of % oxygen removal.
# [7] = oxygen scavenging in stainless steel hot water flow system at elevated temperature and pressure (Example 1); conditions: for % O2 Removed: 78±3°C, 4±1 psig, 4±0.2 min contact, feedwater: hydrazine 96 ppm pH 10.3 O2 1.8 ppm (average of 9 runs), hydroquinone 100 ppm pH 8.9 O2 2.3 ppm, p-phenylenediamine 69 ppm pH 10.9 O2 2.0 ppm, o-phenylenediamine 58 ppm pH 10.2 O2 2.0 ppm, resorcinol 90 ppm pH 9.8 O2 1.8 ppm, values below 20% may be artifacts; for oxygen scavenging in the test water (in words): conclusion from TABLE 1
# Procedure: In a first series of tests, the oxygen scavenging efficacies of various materials were evaluated under conditions of elevated temperature and pressure. The test apparatus used was essentially a stainless steel hot water flow system equipped with appropriate monitoring instrumentation. Demineralized feedwater, adjusted to the appropriate pH and initial dissolved oxygen level (controlled by nitrogen sparging), was pumped from a reservoir at ambient temperature into a once-through heater. Temperature was monitored continuously by means of thermocouples at several locations along the length of the flow tubing. A solution containing the oxygen scavenger test material was loaded into a pump driven syringe and fed continuously to the heated flow stream through a port containing a stainless steel ribbon mixing baffle. The feedwater containing dissolved oxygen and the test material then traversed the flow tubing via a by-pass comprising an additional length of coiled tubing. Contact (or reaction) time of the test material and dissolved oxygen was governed by the choice of coil length. The tendency of the temperature to drop during residence in the coiled tubing was offset by the use of thermostatted heating tapes which maintained the temperature in this tubing at 78°±3°C. Upon exiting the coiled tubing, the stream flowed through a sample cooler to render the temperature of the liquid compatible with the operating range of a membrane-type dissolved oxygen probe. The cooled liquid was analyzed for dissolved oxygen via a D.O. flow cell, and pH was potentiometrically monitored in the flow tube immediately downstream of the D.O. probe. Outputs of the temperature, pH and dissolved oxygen probes during operation were monitored via strip chart recorders. The final destination of the reaction mixture was a reservoir which could be drained for analysis of reaction products, if desired.
# Temperature in the system could be maintained at 78°±3° C. under 4±1 psig. Residence time of the feedwater in the flow tube from chemical feed point to D.O. flow cell outlet was 4±0.2 minutes. Approximately 3.5 minutes of this total was spent in a 40' length of 0.402 inch i.d. coiled tubing. Entry into and residence in the sample cooler accounted for 0.5 minute of the total contact time.
# According to an article by J. W. Cohn and R. E. Powell, Jr., J. Amer.
# The test solutions were prepared by initially mixing 10 grams of test material and 90 grams of demineralized water in glass bottles and allowing the mixture to remain in a shaker for several hours. If complete dissolution for a given material was observed after shaking, the pH of the solution was measured. When the pH of the solution was below 10.0, 7 N sodium hydroxide was added dropwise until this value was reached. The quantity of added sodium hydroxide was recorded and later used in corrections for the active concentration of the solution. When the pH value of a stock solution was above pH 10.0 without requiring the addition of caustic, the solution was not further modified.
# Results of these tests are reported in TABLE 1 below in terms of percent oxygen removed from the test stream. The precision of the initial and final dissolved oxygen values reported is approximately ±10%. […] The experimental uncertainties decrease with increasing values of percent dissolved oxygen removal.
# [8] = thermal decomposition of aqueous solutions in autoclaves (Example 5); conditions: hydrazine 60 ppm, 435 psig, 450 °F, 4 hours
# Procedure: The aqueous solutions (approximately 50-60 ppm in demineralized water) were subjected to specified temperature and pressure conditions for 4 hours prior to chemical analysis.
# test rats = conditions: conclusion from TABLE 4; cited from earlier work
# [9] = hydrazine: pH 9.2, 26.5 °C, 10.5 mol/mol O2, initial O2 0.87 ppm
smiles,measurement,setting,value
NN [hydrazine],temperature above which it decomposes,"[1]; to nitrogen, hydrogen and ammonia",Above 400 °F
same,"% O2 Removed, 1 Minute",[2]; [9],1%
same,"% O2 Removed, 5 Minutes","[2]; 5 minutes, hydrazine: pH 9.2, 26.5 °C, 10.5 mol/mol O2, initial O2 0.87 ppm",2%
same,pH of maximum oxygen scavenging efficacy in solution,[3],10.0-10.5
same,rate of hydrazine-oxygen reaction (in words),[4],very slow at low temperatures
same,toxicity (in words),[5],extreme toxicity and carcinogenicity
same,% O2 Removed,"[6]; hydrazine control run 1: 1.6 ppm actives, pH 8.8, steam load 11 (1000 lbs./hr.), initial O2 13.0 ppb",69%
same,% O2 Removed,"[6]; hydrazine control run 2: 1.1 ppm actives, pH 9.4, steam load 15 (1000 lbs./hr.), initial O2 4.0 ppb",50%
same,% O2 Removed,"[6]; hydrazine control run 3: 1.2 ppm actives, pH 8.6, steam load 15 (1000 lbs./hr.), initial O2 6.0 ppb",60%
same,% O2 Removed,"[6]; hydrazine control run 4: 1.0 ppm actives, pH 8.8, steam load 15 (1000 lbs./hr.), initial O2 5.8 ppb",55%
same,% O2 Removed,"[6]; hydrazine control run 5: 0.8 ppm actives, pH 9.4, steam load 11 (1000 lbs./hr.), initial O2 3.5 ppb",31%
same,% O2 Removed,"[6]; hydrazine control run 6: 1.6 ppm actives, pH 9.6, steam load 14 (1000 lbs./hr.), initial O2 4.0 ppb",30%
same,% O2 Removed,[7],91 ± 4%
same,% Decomposition,[8],20%
Oc1ccc(O)cc1 [hydroquinone],"% O2 Removed, 1 Minute",[2]; [9],29%
same,reactivity at low temperature with oxygen (in words),"[2]; conclusion from TABLE 5, compared to hydrazine","superiority of hydroquinone, as compared to hydrazine"
same,toxicity compared to hydrazine (in words),test rats,significantly less toxic as compared to hydrazine
same,% O2 Removed,"[6]; 1.9 ppm actives, pH 8.4, steam load 15 (1000 lbs./hr.), initial O2 8.0 ppb",88%
same,% O2 Removed,"[6]; 1.9 ppm actives, pH 8.4, steam load 15 (1000 lbs./hr.), initial O2 10.0 ppb",90%
same,efficacy in treating boiler feedwater (in words),[6]; conclusion from TABLES 2 and 3,compared favorably with hydrazine
same,% O2 Removed,[7],97%
same,oxygen scavenging in the test water (in words),[7],"at least equivalent to, if not better than, hydrazine"
Nc1ccccc1N [o-phenylenediamine],% O2 Removed,[7],10%
same,oxygen scavenging in the test water (in words),[7],did not work as oxygen scavengers
Nc1ccc(N)cc1 [p-phenylenediamine],% O2 Removed,[7],35%
same,oxygen scavenging in the test water (in words),[7],did not work as oxygen scavengers
Oc1cccc(O)c1 [resorcinol],% O2 Removed,[7],0%
same,oxygen scavenging in the test water (in words),[7],did not work as oxygen scavengers
O=S([O-])[O-].[Na+].[Na+] [sodium sulfite],decomposition in the boiler (in words),[1]; at high pressures,decomposes in the boiler to form sulfur dioxide and hydrogen sulfide

# Reference: patent US4282111A (Betz Laboratories, Inc., priority 1980, dated 1981)
